{
  "source": "patent US4497803A",
  "about": "“Inclusion compound of lankacidin-group antibiotic and use thereof” (priority 1982, dated 1985)",
  "key": {"St. aureus 209P": {"system": "St. aureus 209P", "assay": "Stability of inclusion compound of lankacidin-group (24° C., for 6 days): antibacterial activity by paper disk assay", "type": "cell-based", "conditions": "methanol, 1000 μg/ml", "method": "The inclusion compound of the present invention is stable in an aqueous solution, although it splits into lankacidin-group moiety and cyclodextrins moiety, when it is in the form of solution or powder, by contacting it with organic solvents (e.g., ethyl acetate, methyl isobutyl ketone) or various carriers (e.g., silica gel, high-porous resins). […] In comparing the antibacterial activity, concentrations of the inclusion compound are calculated in terms of lankacidin-group compound from which the inclusion compound is prepared.\nStability of inclusion compound of lankacidin-group\n*1 Paper disk assay using Trypticase soy agar (Baltimore Biologicals Ltd.\nU.S.A.) as test culture media.\n*2 1000 μg/ml, Lankacidingroup is stable in methanol.\n*3 Aqueous solution of the inclusion compound with cyclodextrin (1000\nμg/ml calculated in terms of lankacidingroup)"}, "[1]": {"assay": "Stability of lankacidin A and C in methanolic aqueous solutions, 40° C., HPLC (Example 7)", "type": "physicochemical", "conditions": "for Residual rate / remaining at 4 h / remaining at 6 h: 10 μg/ml, 40° C.; for Residual rate: 0 hr; for remaining at 4 h / remaining at 6 h: read-out: Residual rate", "method": "5 ml each of a methanolic solution containing lankacidin A or C in a concentration of 100 μg per ml was added to 45 ml each of pH 4.5 and pH 7.0 buffer solutions and a buffer solution containing β-cyclodextrin.\nEach mixture was placed in a glass vessel, and then sealed. While the mixtures were kept in the vessel at 40° C., 5 ml each was taken out from time to time and extracted with ethyl acetate. The organic layers were dried over anhydrous sodium sulfate and the concentrations of the lankacidin A or C was measured with high-performance liquid chromatography (HPLC).\nApparatus: Water Associates ALC/GPC 240 (Waters Associates Inc., U.S.A.)\nColumn: μPoracil 30 cm×3.9 mm.phi.\nEluent: n-Hexane: isopropyl alcohol: acetic acid (75:25:0.2)."}, "[2]": {"assay": "Solubility of inclusion compound in water", "type": "physicochemical", "method": "The lankacidin-group is added to each of solutions containing various amounts of cyclodextrin. The minimum concentration of cyclodextrin which dissolves the maximum amount of the lankacidin-group compound and practical concentrations thereof are determined on the basis of amounts of the lankacidin-group compound dissolved in the cyclodextrin solutions. Then, the molar ratio of cyclodextrin to lankacidin-group compound is calculated by the following equation:\nMolar ratio=[Molarity of cyclodextrin]:[(Saturation molarity of lankacidin-group compound in a certain concentration of cyclodextrin-solution)-(saturation molarity of lankacidin-group compound in an aqueous solution)].\nMoreover, a large amount of the present inclusion compound is dissolved in water and it is kept stably therein. Solubility of the inclusion compound in water is greater than that of landacidin-group compounds in water, when the amount of the inclusion compound dissolved is calculated in terms of lankacidin-group compound, and than saturation concentration of cyclodextrin in water so far as cyclodextrin contained in the inclusion compound is concerned (Table 2).\n(1) Solubility of lankacidingroup in water.\n(2) Solubility of lankacidingroup in M/100 cyclodextrin solution.\n(3) Concentration of cyclodextrin of (2).\n(4) Solubility (maximum) of the present inclusion compound (calculated in\nterms of lankacidingroup contained) in water.\n(5) Concentration of cyclodextrin contained in the inclusion compound of […]"}, "[3]": {"assay": "Solubility / suspension in physiological saline for injection (Test Example)", "type": "physicochemical", "method": "10 mg (titer) calculated in terms of lankacidin A is soluble in 1 ml each of physiological saline solution. As a control, lankacidin A itself used in Example 5 was employed.\n5.2 ml (titer: 10 mg/kg) of this suspension was administered to pig No. 1 and 4.9 ml (titer: 7 mg/kg) was administered to pig No. 2 by injecting it into root portion of ear once a day for two days.\nThus, administration was impossible."}, "[4]": {"assay": "Solubility in β-CD solution, shaken 16 hours (Example 3)", "type": "physicochemical", "method": "Powdery lankacidin C was added to an aqueous solution of cyclodextrin (hereinafter referred to as \"CD\") to have 4 mg/ml of the lankacidin C contained. After the mixture was stirred with a mixer, it was shaken at 5° C. for 2 hours, and passed through filter paper. The absorbancy of the filtrate was measured at 227-229 nm to determine concentration of the lankacidin C.\nThe solubilities of lankacidin A, lankacidin C and lankacidinol in a β-CD solution were measured in the same manner as that of Example 1 except that the shaking was continued for 16 hours."}, "[5]": {"conditions": "methanolic buffer with β-cyclodextrin, pH 4.5, β-cyclodextrin 10 mg/ml"}, "[6]": {"conditions": "methanolic buffer with β-cyclodextrin, pH 7.0, β-cyclodextrin 10 mg/ml"}},
  "note": "Like-named read-outs stand apart in the source and are kept apart here.",
  "data": [
    {"compound": "CC(=O)OC1C=CC(C)=CCC(O)C=CC(C)=CC(NC(=O)C(C)=O)C2(C)C(=O)OC(C1)C(C)C2=O", "note": "(centres unmarked) [Lankacidin A, lankacidin A]", "values": [
      {"measurement": "Antibacterial activity, inhibition diameter", "setting": "St. aureus 209P; 0 day", "value": 26.75, "unit": "mm"},
      {"measurement": "Antibacterial activity, inhibition diameter", "setting": "St. aureus 209P; 3 days at 24° C.", "value": 27.0, "unit": "mm"},
      {"measurement": "Antibacterial activity, inhibition diameter", "setting": "St. aureus 209P; 6 days at 24° C.", "value": 23.25, "unit": "mm"},
      {"measurement": "Residual rate", "setting": "[1]; pH 4.5, no β-cyclodextrin", "value": 100, "unit": "%"},
      {"measurement": "Residual rate", "setting": "[1]; pH 4.5, β-cyclodextrin 10 mg/ml", "value": 100, "unit": "%"},
      {"measurement": "Residual rate", "setting": "[1]; pH 7.0, no β-cyclodextrin", "value": 100, "unit": "%"},
      {"measurement": "Residual rate", "setting": "[1]; pH 7.0, β-cyclodextrin 10 mg/ml", "value": 100, "unit": "%"},
      {"measurement": "Effect of β-cyclodextrin on stability in methanolic aqueous solutions", "setting": "[1]; 1000 times β-CD by weight added", "value": "increased stabilities"},
      {"measurement": "remaining at 4 h", "setting": "[1]; methanolic aqueous buffer, pH 4.5, no β-cyclodextrin", "value": 34.5, "unit": "%"},
      {"measurement": "remaining at 4 h", "setting": "[1]; methanolic aqueous buffer, pH 7.0, no β-cyclodextrin", "value": 17.4, "unit": "%"},
      {"measurement": "remaining at 4 h", "setting": "[1]; [5]", "value": 91.9, "unit": "%"},
      {"measurement": "remaining at 6 h", "setting": "[1]; [5]", "value": 85.7, "unit": "%"},
      {"measurement": "remaining at 4 h", "setting": "[1]; [6]", "value": 58.3, "unit": "%"},
      {"measurement": "remaining at 6 h", "setting": "[1]; [6]", "value": 48.1, "unit": "%"},
      {"measurement": "solubility", "setting": "[2]; m/100 cyclodextrin solution, M/100 cyclodextrin, (3) cyclodextrin 11.3 mg/ml, read-out: (2) Solubility of lankacidin-group in M/100 cyclodextrin solution", "value": 2690, "unit": "µg/mL"},
      {"measurement": "solubility", "setting": "[2]; water, read-out: (1) Solubility of lankacidin-group in water", "value": 181, "unit": "µg/mL"},
      {"measurement": "Preparation of injection/suspension in sterilized physiological saline solution", "setting": "[3]", "value": "suspension could not be obtained due to separation of the drug"},
      {"measurement": "solubility at 16 h", "setting": "[4]; aqueous β-cd solution, β-CD 2 × 10^-3 Mol/l", "value": 632, "unit": "µg/mL"},
      {"measurement": "solubility at 16 h", "setting": "[4]; aqueous β-cd solution, β-CD 2 × 10^-4 Mol/l", "value": 201, "unit": "µg/mL"},
      {"measurement": "solubility at 16 h", "setting": "[4]; aqueous β-cd solution, β-CD 5 × 10^-3 Mol/l", "value": 1370, "unit": "µg/mL"},
      {"measurement": "solubility at 16 h", "setting": "[4]; aqueous β-cd solution, β-CD 5 × 10^-4 Mol/l", "value": 265, "unit": "µg/mL"},
      {"measurement": "solubility at 16 h", "setting": "[4]; aqueous β-cd solution, β-CD 10^-2 Mol/l", "value": 2690, "unit": "µg/mL"},
      {"measurement": "solubility at 16 h", "setting": "[4]; aqueous β-cd solution, β-CD 10^-3 Mol/l", "value": 400, "unit": "µg/mL"},
      {"measurement": "solubility at 16 h", "setting": "[4]; aqueous β-cd solution, β-CD 10^-4 Mol/l", "value": 195, "unit": "µg/mL"},
      {"measurement": "Solubility in β-CD solution as function of β-CD concentration", "setting": "[4]; from the vicinity of 10^-3 Mol/l of β-CD", "value": "increase in proportion to the concentration of β-CD"},
      {"measurement": "solubility at 16 h", "setting": "[4]; water, β-CD 0 Mol/l", "value": 181, "unit": "µg/mL"}
    ]}
  ]
}
